Calls of active or inactive are those of the source. The rule behind the calls is not given here.
What was measured:
[1] = tested on: PBMC; test: Antiinflammatory activity in human PBMC assessed as inhibition of LPS-induced IL-6 release incubated for 15 mins prior to LPS-challenge measured after 24 hrs by HTRF assay; type: functional, cell-based
[2] = tested on: PBMC; test: Antiinflammatory activity in human PBMC assessed as inhibition of LPS-induced IL-1beta release incubated for 15 mins prior to LPS-challenge measured after 24 hrs by HTRF assay; type: functional, cell-based
[3] = tested on: PBMC; test: Antiinflammatory activity in human PBMC assessed as inhibition of LPS-induced TNFalpha release incubated for 15 mins prior to LPS-challenge measured after 24 hrs by HTRF assay; type: functional, cell-based
[4] = tested on: Mus musculus; test: Toxicity in mouse assessed as change in body weight at 3 mg/kg, po qd after 20 days relative to untreated control; type: organism-based; design: dose 3 mg/kg, route oral; settings: in vivo, 480 h
[5] = tested on: Mus musculus; test: Antiinflammatory activity in collagen-induced arthritis mouse model at 3 mg/kg, po qd after 20 days; type: functional, organism-based; design: dose 3 mg/kg

| SMILES | IC50 [1] | IC50 [2] | IC50 [3] | Activity [4] | inhibition [5] |
| --- | --- | --- | --- | --- | --- |
| O=C(Nc1ccc2c(c1)B(O)OC2)Nc1ccccc1C(F)(F)F | > 10 µM | > 10 µM | > 10 µM | – | – |
| O=C(Nc1ccc2c(c1)B(O)OC2)c1cc(F)ccc1C(F)(F)F | 8.2 µM | 11 µM | 28 µM | – | – |
| O=C(Nc1ccc2c(c1)B(O)OC2)c1ccc(C(F)(F)F)cc1 | > 100 µM | > 100 µM | > 100 µM | – | – |
| O=C(Nc1ccc2c(c1)B(O)OC2)c1ccc(F)cc1C(F)(F)F | 5.6 µM | 3.2 µM | 13 µM | – | – |
| O=C(Nc1ccc2c(c1)B(O)OC2)c1cc(C(F)(F)F)ccc1C(F)(F)F | 3 µM | 2 µM | 6.3 µM | – | – |
| Cc1ccccc1C(=O)Nc1ccc2c(c1)B(O)OC2 | > 100 µM | > 100 µM | > 100 µM | – | – |
| C[C@]12C=CC(=O)C=C1CC[C@@H]1[C@@H]2[C@@H](O)C[C@@]2(C)[C@H]1CC[C@]2(O)C(=O)CO [PREDNISOLONE] | – | – | – | Non-toxic | Active |
| O=C(Nc1ccc2c(c1)B(O)OC2)c1c(F)cccc1Cl | 4.9 µM | 3.1 µM | 15 µM | – | – |
| O=C(Nc1ccc2c(c1)B(O)OC2)c1ccccc1C(F)(F)F | 4.4 µM | 2.1 µM | 7.2 µM | – | – |
| O=S(=O)(Nc1ccc2c(c1)B(O)OC2)c1ccccc1C(F)(F)F | > 10 µM | > 10 µM | > 10 µM | – | – |
| O=C(Nc1ccc2c(c1)B(O)OC2)c1ccccc1F | > 10 µM | > 10 µM | > 100 µM | – | – |
| COc1ccccc1C(=O)Nc1ccc2c(c1)B(O)OC2 | > 100 µM | > 100 µM | 36 µM | – | – |
| O=C(Nc1ccc2c(c1)B(O)OC2)c1ccccc1 | > 100 µM | > 100 µM | > 100 µM | – | – |
| O=C(Nc1ccc2c(c1)B(O)OC2)c1cccc(C(F)(F)F)c1F | > 100 µM | > 100 µM | 99 µM | – | – |
| O=C(Nc1ccc2c(c1)B(O)OC2)c1cccc(C(F)(F)F)c1 | > 10 µM | > 10 µM | > 10 µM | – | – |
| O=C(Nc1ccc2c(c1)B(O)OC2)c1cccc(Cl)c1F | > 100 µM | > 100 µM | > 100 µM | – | – |
| OB1OCc2ccc(NCc3ccccc3C(F)(F)F)cc21 | > 10 µM | > 10 µM | > 10 µM | – | – |
| O=C(Nc1ccc2c(c1)B(O)OC2)c1cc(C(F)(F)F)ccc1F | > 100 µM | > 100 µM | > 100 µM | – | – |
| O=C(Nc1ccc2c(c1)B(O)OC2)c1ccccc1Cl | > 100 µM | > 100 µM | > 100 µM | – | – |
| O=C(Nc1ccc2c(c1)B(O)OC2)c1ccccc1OC(F)(F)F | > 100 µM | > 100 µM | > 100 µM | – | – |
| O=C(Nc1ccc2c(c1)B(O)OC2)c1ccccc1-c1ccccc1 | > 100 µM | > 100 µM | > 100 µM | – | – |
| O=C(Nc1ccc2c(c1)B(O)OC2)c1c(F)cccc1C(F)(F)F | 0.37 µM | 0.18 µM | 1.2 µM | – | – |
| O=C(Nc1ccc2c(c1)B(O)OC2)c1ccc(C(F)(F)F)cc1F | > 100 µM | > 100 µM | > 100 µM | – | – |
| O=C(Nc1ccc2c(c1)B(O)OC2)c1ccc(C(F)(F)F)cc1C(F)(F)F | 8.3 µM | 5.3 µM | 10 µM | – | – |

Reference: ChEMBL document CHEMBL2440005, “Discovery and structure-activity relationships of 6-(benzoylamino)benzoxaboroles as orally active anti-inflammatory agents” (Bioorg Med Chem Lett, 2013)
